In ChEMBL document CHEMBL1136714 (J Med Chem, 2003):

Experiments:
[1] = target: Sodium-dependent serotonin transporter (Rattus norvegicus, UniProt P31652); experiment: Binding affinity towards serotonin transporter in rat striatum using [3H]citalopram as radioligand; type: tissue-based
[2] = target: Norepinephrine transporter (Rattus norvegicus, UniProt Q9WTR4); experiment: Binding affinity towards norepinephrine transporter in rat striatum using [3H]nisoxetine as radioligand; type: tissue-based
Norepinephrine transporter, sequence (Q9WTR4 whole entry): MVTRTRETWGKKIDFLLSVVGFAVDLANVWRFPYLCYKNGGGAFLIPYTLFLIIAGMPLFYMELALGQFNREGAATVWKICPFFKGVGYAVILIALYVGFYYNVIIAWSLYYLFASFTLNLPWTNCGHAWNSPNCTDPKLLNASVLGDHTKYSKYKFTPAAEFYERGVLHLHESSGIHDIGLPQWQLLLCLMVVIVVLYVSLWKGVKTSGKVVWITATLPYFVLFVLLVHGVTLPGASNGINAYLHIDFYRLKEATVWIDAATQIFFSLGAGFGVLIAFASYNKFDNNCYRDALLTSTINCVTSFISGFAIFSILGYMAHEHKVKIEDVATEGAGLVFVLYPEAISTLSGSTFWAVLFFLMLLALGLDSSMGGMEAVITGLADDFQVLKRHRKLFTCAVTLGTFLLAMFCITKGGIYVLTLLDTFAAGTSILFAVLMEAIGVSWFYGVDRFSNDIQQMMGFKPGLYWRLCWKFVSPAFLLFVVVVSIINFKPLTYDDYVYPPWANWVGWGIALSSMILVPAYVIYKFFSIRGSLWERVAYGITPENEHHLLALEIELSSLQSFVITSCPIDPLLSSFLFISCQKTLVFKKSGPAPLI

[3] = target: T1, Sodium-dependent dopamine transporter (Rattus norvegicus, UniProt P23977); experiment: Binding affinity towards dopamine transporter in rat striatum using [3H]WIN-35 428 as radioligand; type: tissue-based
T1 sequence (P23977 whole entry): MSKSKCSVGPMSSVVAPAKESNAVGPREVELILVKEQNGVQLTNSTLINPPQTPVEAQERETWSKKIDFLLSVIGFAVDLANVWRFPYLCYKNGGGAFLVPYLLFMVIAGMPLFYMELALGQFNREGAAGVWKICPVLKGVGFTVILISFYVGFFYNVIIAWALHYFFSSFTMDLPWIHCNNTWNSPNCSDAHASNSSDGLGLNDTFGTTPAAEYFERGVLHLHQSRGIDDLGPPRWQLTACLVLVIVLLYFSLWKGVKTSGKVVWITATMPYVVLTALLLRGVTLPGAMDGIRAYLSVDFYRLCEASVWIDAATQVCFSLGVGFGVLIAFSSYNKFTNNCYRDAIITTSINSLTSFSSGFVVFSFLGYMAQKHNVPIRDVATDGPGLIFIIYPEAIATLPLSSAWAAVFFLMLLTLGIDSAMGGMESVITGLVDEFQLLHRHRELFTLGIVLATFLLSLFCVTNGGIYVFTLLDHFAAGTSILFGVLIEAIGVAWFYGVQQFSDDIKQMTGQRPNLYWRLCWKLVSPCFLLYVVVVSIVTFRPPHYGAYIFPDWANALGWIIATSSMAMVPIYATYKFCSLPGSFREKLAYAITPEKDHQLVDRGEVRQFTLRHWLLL

[4] = target: T1, Sodium-dependent dopamine transporter; experiment: Inhibition of uptake from dopamine transporter in rat striatum using [3H]DA as radioligand; type: functional, tissue-based

Sodium-dependent serotonin transporter, sequence (P31652 whole entry): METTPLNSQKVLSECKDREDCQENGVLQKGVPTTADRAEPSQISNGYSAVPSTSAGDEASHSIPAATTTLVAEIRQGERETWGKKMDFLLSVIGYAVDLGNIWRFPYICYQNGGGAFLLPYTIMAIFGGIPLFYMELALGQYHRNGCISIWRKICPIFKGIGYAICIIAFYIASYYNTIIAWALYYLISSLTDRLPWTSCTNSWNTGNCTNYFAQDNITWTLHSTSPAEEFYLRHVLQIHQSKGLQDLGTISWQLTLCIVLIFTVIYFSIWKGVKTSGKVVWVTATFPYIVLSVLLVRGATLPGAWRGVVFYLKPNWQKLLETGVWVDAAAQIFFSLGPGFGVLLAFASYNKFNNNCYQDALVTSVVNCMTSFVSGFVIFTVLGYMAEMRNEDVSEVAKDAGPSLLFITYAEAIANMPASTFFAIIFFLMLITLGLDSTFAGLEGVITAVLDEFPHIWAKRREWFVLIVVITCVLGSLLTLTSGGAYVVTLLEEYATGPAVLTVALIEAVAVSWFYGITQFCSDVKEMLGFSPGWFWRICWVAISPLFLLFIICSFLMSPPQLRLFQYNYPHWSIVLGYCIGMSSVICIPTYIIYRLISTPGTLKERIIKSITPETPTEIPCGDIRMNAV

| Compound | IC50 [1] | IC50 [2] | IC50 [3] | IC50 [4] |
| --- | --- | --- | --- | --- |
| CCC(=O)O[C@@H]1CN(Cc2ccc(F)cc2)CC[C@H]1CCOC(c1ccccc1)c1ccccc1 | 178000 nM | 35800 nM | 583 nM |  |
| Fc1ccc(CN2CC=C(CCOC(c3ccccc3)c3ccccc3)CC2)cc1 | 1110 nM |  | 37.8 nM |  |
| Fc1ccc(CN2CCC(CCOC(c3ccccc3)c3ccccc3)CC2)cc1 |  |  |  | 2.48 nM |
| O=C1CN(Cc2ccc(F)cc2)CC[C@H]1CCOC(c1ccccc1)c1ccccc1 | 7750 nM | 6300 nM | 99 nM |  |
| O[C@@H]1CN(Cc2ccc(F)cc2)CC[C@H]1CCOC(c1ccccc1)c1ccccc1 | 1830 nM | 1550 nM | 56.7 nM | 38 nM |
| OC1CN(Cc2ccc(F)cc2)CC[C@@H]1CCOC(c1ccccc1)c1ccccc1 (stereo not given in full) | 3600 nM | 1880 nM | 0.46 nM | 4.05 nM |
| O[C@H]1CN(Cc2ccc(F)cc2)CC[C@H]1CCOC(c1ccccc1)c1ccccc1 (racemic) | 3310 nM | 2150 nM | 11.2 nM | 10.1 nM |
| O[C@@H]1CN(Cc2ccc(F)cc2)CC[C@H]1CCOC(c1ccccc1)c1ccccc1 (racemic) | 2360 nM | 1030 nM | 4.14 nM | 3.22 nM |
